Several values for one entry are separate records, joined by “and”; a condition that tells them apart may be missing. Identical values can stand only once. A value given as a limit tells only on which side of the number the result lay.

The experiment addresses SARS-CoV-2 Main Protease (SARS-CoV-2) (UniProt P0DTD1).

As to `O=C(c1cc(=O)[nH]c2ccccc12)N1CCN(Cc2ccccc2)CC1`, the IC50 (in general, the concentration that gives 50% inhibition) was determined as 8.76 µM. The result for `O=C(Cc1cc(Cl)cc(Nc2c(Cl)cncc2Cl)c1)Nc1cncc2ccccc12` reads 2.04 µM; that for `O=C(Cc1cccc(Cl)c1)Nc1cncn2cnnc12`, > 99.5 µM; that for `O=C(Cc1cccc(Cl)c1)Nc1cncc2cnoc12`, 23.9 µM. The result for `O=C(Cc1cccc(Cl)c1)Nc1cncc2c1NCCC2` reads 38 µM.

Consider `O=C1CC(N2CC(C(=O)Nc3cncc4ccccc34)c3cc(Cl)ccc3C2=O)CN1` (stereo not given), for which the IC50 is 0.681 µM. With `CC(C)(C)c1ccc(N(C(=O)c2nccs2)C(C(=O)NCCc2cccc(F)c2)c2cccnc2)cc1` (stereo not given), the IC50 amounted to 0.8 µM. For `Cc1ccncc1N1CCN(c2cccc(Cl)c2)C1=O`, the IC50 was determined as 81.7 µM.

Turning to `C[C@H]1C[C@H](C(=O)Nc2cncc3ccccc23)c2cc(Cl)ccc2O1` (stereo in doubt), the IC50 was 52.1 µM. Regarding `CC(NC(=O)CN)(C(=O)Nc1cncc2ccccc12)c1ccc(Cl)c(Cl)c1` (stereo not given), the IC50 is 6.21 µM and 1.84 µM.

Regarding `Cc1ccc(NCc2nnc3n(C)c(=O)c4ccccc4n23)cc1C`, the IC50 was > 99.5 µM. `O=C(Cc1cc(Cl)cc(Nc2ccc(F)nc2Br)c1)Nc1cncc2ccccc12`: the IC50 was 1.86 µM. The result for `CS(=O)(=O)Nc1ccc(Cl)cc1C(=O)N1CCC(C2CCNC2)CC1` (stereo not given) reads > 99.5 µM; that for `O=C(Nc1cncc2ccccc12)C12CCC(O1)c1cc(Cl)ccc12` (stereo not given), 2.39 µM. Consider `O=C(Nc1cncc2ccccc12)C1CCOc2c(OCC3CC3)cc(Cl)cc21` (stereo not given), for which the IC50 is > 2.49 µM. The result for `O=C(NCC1(C(=O)Nc2cncc3ccccc23)CCOc2ccc(Cl)cc21)C1COCCN1CC(F)(F)F` (stereo not given) reads 17.1 µM and 27.2 µM.

As to `Nc1ccccc1-c1nc2ccccc2n1-c1cc(Cl)cc(CC(=O)Nc2cncc3ccccc23)c1`, the IC50 was determined as 5.09 µM. As for `C=CC(=O)Nc1cc(C(=O)NC[C@H](Cc2ccccc2)c2ccccn2)ccc1O` (stereo in doubt), the IC50 was > 99.5 µM. As to `CCN(CC)S(=O)(=O)c1ccc(Nc2cc(Cl)cc(CC(=O)Nc3cncc4ccccc34)c2)cc1`, the IC50 came out at 2.15 µM. Consider `O=C1N(c2cncc3ccccc23)CCC12CN(Cc1nncs1)Cc1ccc(Cl)cc12` (stereo not given), for which the IC50 worked out at 0.263 µM. The result for `CNC(=O)CN1C[C@H](C(=O)Nc2cncc3cccc(Cl)c23)c2cc(Cl)ccc2C1=O` (stereo in doubt) reads 0.0964 µM; that for `O=C(Cc1cc(Cl)cc(Nc2ccc(Br)c3ccccc23)c1)Nc1cncc2ccccc12`, 1.98 µM; that for `Cc1cccc2nc(NC3CCN(c4ccc5nncn5n4)C3)sc12` (stereo not given), > 99.5 µM. The result for `CC(C)(C)OC(=O)CNC(=O)C(c1cccnc1)N(C(=O)c1cocn1)c1ccc(C(C)(C)C)cc1` (stereo not given) reads 8.18 µM; that for `C=CC(=O)N(c1ccc(C(C)(C)C)cc1)C(C(=O)NCCc1cccc(F)c1)c1cccnc1` (stereo not given), 2.96 µM; that for `CNC(=O)CN1CC(C)(C(=O)Nc2cncc3cc(F)ccc23)c2cc(Cl)ccc2S1(=O)=O` (stereo not given), 0.248 µM. In turn, `O=C(Cc1cc(Cl)cc(Cl)c1)Nc1cncc2ccccc12` displayed a half-maximal inhibitory concentration (IC50) of 1.37 µM. In the case of `N#CC(C(=O)Nc1cncc2ccccc12)c1ccc(Cl)c(Cl)c1` (stereo not given), the IC50 was determined as 0.803 µM.

Regarding `CC(C)(O)c1ccc2cncc(NC(=O)C3CN(S(=O)(=O)CC4(C#N)CC4)Cc4ccc(Cl)cc43)c2c1` (stereo not given), the IC50 was 1.14 µM. As to `CNC(=O)CN1CC(C(=O)Nc2cncc3ccc(C(C)(C)O)cc23)c2cc(Cl)ccc2C1=O` (stereo not given), the IC50 was found to be 0.384 µM. The result for `CNC(=O)Nc1ccc(N(Cc2ccsc2)C(=O)Cn2nnc3ccccc32)cc1` reads 1.42 µM. In the case of `O=C(Cc1cc(Cl)cc(Nc2ccc(F)cc2C(F)(F)F)c1)Nc1cncc2ccccc12`, the IC50 worked out at 1.56 µM. The result for `O=C(CC1(C(=O)Nc2cncc3ccccc23)CCOc2ccc(Cl)cc21)N1CCC2CS(=O)(=O)CC2C1` (stereo not given) reads 1.67 µM; that for `O=C(Cc1cc(Cl)cc(-c2nnn[nH]2)c1)Nc1cncc2ccccc12`, 21.4 µM. The result for `O=C(Cc1cc(Cl)cc(OC2CCC(=O)N2)c1)Nc1cncc2ccccc12` (stereo not given) reads 85.9 µM; that for `CC1(C(=O)Nc2cncc3cccc(Cl)c23)CNS(=O)(=O)c2ccc(Cl)cc21` (stereo not given), 1.87 µM; that for `Cc1ccncc1NC(=O)Cc1cccc(C#N)c1`, 63.7 µM and 59 µM. As to `O=C(Cc1cc(Cl)cc(Nc2cc(C(F)(F)F)ccc2N2CCCC2)c1)Nc1cncc2ccccc12`, the IC50 worked out at 3.51 µM. The result for `O=C(Nc1cncc2ccccc12)C1CCOc2c(O)ccc(Cl)c21` (stereo not given) reads > 99.5 µM; that for `O=C(Cn1nnc2ccccc21)Nc1cccc(Cl)c1`, > 99.5 µM; that for `O=C(Cc1cc(Cl)cc(Nc2ncccc2OCc2ccccc2)c1)Nc1cncc2ccccc12`, 2 µM. In the case of `O=C1CCN(S(=O)(=O)c2cccs2)CC1`, the IC50 was > 99.5 µM.

On to `O=S(=O)(Nc1cc2c(cc1OCc1ccccc1)OCO2)c1ccccc1`, for which the IC50 was > 99.5 µM. `O=C(Cc1cccc(Cl)c1)NC1CC(=O)c2ccccc21` (stereo not given) gave an IC50 of 53.8 µM. As for `Cc1cccc2ncnc(NC(C)c3ccc4[nH]c(=O)[nH]c4c3)c12` (stereo not given), the IC50 was > 99.5 µM. On to `Cc1ccncc1NC(=O)C(C)(C)c1cccc(Cl)c1`, for which the IC50 was 95.8 µM and 98.1 µM. The result for `O=C1O[C@]2(CCOc3ccc(Cl)cc32)C(=O)N1c1cncc2ccccc12` (stereo in doubt) reads 80.9 µM and > 9.95 µM; that for `CCOC(=O)c1c(COc2cc(Cl)cc(CC(=O)Nc3cnccc3C)c2)oc2ccccc12`, > 99.5 µM. With `C=CC(=O)NCC(=O)N(Cc1ccccc1)C[C@@]1(O)CN2CCC1CC2` (stereo in doubt), the IC50 was > 99.5 µM. Turning to `CN(C)CCCN(Cc1cccs1)C(=O)Cc1cncc2ccccc12`, the IC50 is > 99.5 µM.

`CCC(C(=O)O)N1CCCC(NC(=O)c2ccc3ccccc3c2)C1` (stereo not given): the IC50 was > 99.5 µM. The compound `O=C(Cc1cc(Cl)cc(Nc2nc(Cl)nc3nc[nH]c23)c1)Nc1cncc2ccccc12` came in with an IC50 of 2.37 µM. Compound `COC(=O)/C=C/C(=O)N(C(=O)[C@H]1CCOc2ccc(Cl)cc21)c1cncc2ccccc12` (stereo in doubt) showed an IC50 of 4.36 µM. The result for `CC(C)(C)c1ccc(N(C(=O)c2nnc(S)[nH]c2=O)C(C(=O)NCCc2cccc(F)c2)c2cccnc2)cc1` (stereo not given) reads > 99.5 µM; that for `CC(NCc1cnc2c(cnn2C)c1)c1nc2ccccc2s1` (stereo not given), > 99.5 µM; that for `Cc1nc2sccn2c1CN(C)C(=O)c1cn2ccccc2n1`, > 99.5 µM. On to `Clc1ccc2c(c1)C1(CCO2)CCN(c2cncc3cccc(Cl)c23)C1` (stereo not given), for which the IC50 is > 99.5 µM.

The compound `Cn1ncc(S(=O)(=O)N2Cc3ccc(Cl)cc3C(C(=O)Nc3cncc4ccccc34)C2)n1` (stereo not given) displayed an IC50 of 0.268 µM. The result for `CCOc1ccc(N(C(=O)c2cnc[nH]2)C(C(=O)NCCc2cccc(F)c2)c2cccnc2)cn1` (stereo not given) reads > 99 µM. The result for `CC(C)NS(=O)(=O)N1Cc2ccc(Cl)cc2C(C(=O)Nc2cncc3ccccc23)C1` (stereo not given) reads 0.195 µM; that for `Cc1nccn1Cc1ccc2c(NC(=O)C3CCOc4ccc(Cl)cc43)cncc2c1` (stereo not given), 5.32 µM. For the compound `O=C(Cc1cc(Cl)cc(NCc2cc(F)ccc2Br)c1)Nc1cncc2ccccc12`, the IC50 came to 1.88 µM. The result for `COc1ncc(Nc2cc(Cl)cc(CC(=O)Nc3cncc4ccccc34)c2)cc1Br` reads 1.74 µM; that for `O=C(Cc1cc(Cl)cc(Nc2ncc(Br)nc2Cl)c1)Nc1cncc2ccccc12`, 1.71 µM. The result for `CC(C)(C)c1ccc(N(C(=O)c2nc3cnccc3s2)C(C(=O)NCCc2cccc(F)c2)c2cccnc2)cc1` (stereo not given) reads > 99.5 µM; that for `CC(C)(C)c1ccc(N(C(=O)c2cocn2)C(C(=O)NC2CC(F)(F)C2)c2cccnc2)cc1` (stereo not given), 2.35 µM. Take `N#Cc1ncc(Cl)cn1`: the IC50 was > 99.5 µM. The result for `Cc1cc2c(N)nc(=O)n(CC(=O)Nc3cccc(Cl)c3)c2s1` reads > 99.5 µM. Turning to `Cc1cnoc1C(=O)N(c1ccc(C(C)(C)C)cc1)C(C(=O)NCCc1cccc(F)c1)c1cccnc1` (stereo not given), the IC50 is > 99.5 µM. The result for `Cc1ccc2ncnc(NCc3ccc4nonc4c3)c2c1` reads > 99.5 µM; that for `O=C(NCCc1cccc(F)c1)C(c1cccnc1)N(C(=O)c1cocn1)c1ccc2c(c1)CCOC2` (stereo not given), > 99.5 µM. The result for `O=C1CC(C(=O)Nc2cncc3ccccc23)c2cc(Br)ccc2N1` (stereo not given) reads 1.12 µM; that for `O=C1NCC(C(=O)Nc2cnn3ccccc23)c2cc(Cl)ccc21` (stereo not given), 7.09 µM; that for `O=C(NCCc1cccc(F)c1)C(c1cccnc1)N(C(=O)c1cocn1)C1CCC2OCCC2C1` (stereo not given), > 99.5 µM. Consider `CC(CCC(OC1OC(COC2OC(CO)C(O)C(O)C2O)C(O)C(O)C1O)C(C)(C)O)C1CCC2(C)C3CC=C4C(CCC(O)C4(C)C)C3(C)C(O)CC12C` (stereo not given), for which the IC50 is > 99.5 µM.

Regarding `O=C(Cc1cc(Cl)cc(Nc2cc(F)c(F)cc2Br)c1)Nc1cncc2ccccc12`, the IC50 was 2.16 µM. On to `CN(C)C(=O)CN1CCC(C(=O)Nc2cncc3ccccc23)c2cc(Cl)ccc21` (stereo not given), for which the IC50 stood at 2.54 µM. The result for `O=C(Cc1cccc(Cl)c1)NC1C(=O)Nc2ccccc21` (stereo not given) reads > 99.5 µM; that for `O=C(Cc1cccc(Cl)c1)Nn1cnc2ccccc21`, 8.3 µM; that for `Cc1ccn2c(NC(=O)Cc3cccc(Cl)c3)cnc2c1`, 19.6 µM. The result for `O=C1NC(c2ccc(Cl)c(Cl)c2)C(=O)N1c1cncc2ccccc12` (stereo not given) reads 8.46 µM; that for `Cc1ccncc1NC(=O)CC(C)C(C)C` (stereo not given), > 99 µM; that for `N#Cc1ccc(Nc2cc(Cl)cc(CC(=O)Nc3cncc4ccccc34)c2)cc1Br`, 2.16 µM.

`Cc1c(C(=O)CCl)c2ccccn2c1C(=O)c1ccc(F)cc1` registered an IC50 of 0.719 µM. The result for `O=C(Nc1cncc2ccccc12)C1CN(S(=O)(=O)C2COC2)Cc2ccc(Cl)cc21` (stereo not given) reads 0.246 µM. In turn, `O=C1NCC(C(=O)Nc2cncc3cc(F)ccc23)c2cc(Cl)ccc21` (stereo not given) returned an IC50 of 1.15 µM. The result for `Cc1cccc(C)c1N(C(=O)CN1CCNCC1)c1cc(Cl)cc(CC(=O)Nc2cncc3ccccc23)c1` reads 2.74 µM; that for `O=C(NCCc1cccc(F)c1)C(c1cccnc1)N(C(=O)c1cnc[nH]1)C1CCCC2(CCC2)C1` (stereo not given), > 99 µM; that for `O=C(Nc1ccc2ccccc2c1)[C@@H]1CN(C(=O)CCl)CCN1S(=O)(=O)c1ccsc1` (stereo in doubt), 0.523 µM. In turn, `CN(C)c1ccc(N(Cc2cscn2)C(=O)Cn2nnc3ccccc32)cc1` returned an IC50 of 4.85 µM.

(Values after the COVID Moonshot data (paper PMC7615835).)
